Assay results as given in patent US20090053807A1 (Novo Nordisk A/S, priority 1998, published 2009).
pKd: −log10 of the molar value. Entries after “also recorded” stand apart in the source; their conditions may differ. Positions of bridges follow the written chain, without caps; N, C: chain ends. Non-standard residues stand in square brackets, D forms with d. Residues, ends and D or L forms follow the SMILES beside them. Chains are numbered I, II in the order given. No end group written: not given here. *: point of attachment. aminooxyacetyl = NOCC(=O)*; Glyoxylyl = O=CC(=O)*

Each compound was assayed on FDC-P2 cells expressing the IL-3 and human IGF-1R receptors (assay: not given). Conditions: FDC-P2 cells, agonist format; Table 15.
“WLDQERAWLWCEISGRGCLSGGSGGSGGSGGSGSLDESFYDWFERQLGKK (disulfide 11-18 (inferred)) [D815-RP9 12 aa]” was tested, and the “ED50 Growth” value was 10,000 nM.
In the case of “WLDQERAWLWCEISGRGCLSGGSGGSGSLDESFYDWFERQLGKK (disulfide 11-18 (inferred)) [D815-RP9 6 aa]”, the “ED50 Growth” value was 50 nM.

Same assay, conditions: FDC-P2 cells; Table 15
“WLDQERAWLWCEISGRGCLSGGSGGSGGSGGSGSLDESFYDWFERQLGKK (disulfide 11-18 (inferred)) [D815-RP9 12 aa]” was tested, and the “Max Action” value was 100%.
In the case of “WLDQERAWLWCEISGRGCLSGGSGGSGSLDESFYDWFERQLGKK (disulfide 11-18 (inferred)) [D815-RP9 6 aa]”, the “Max Action” value was >50%.

What follows are compounds tested against T1, human insulin receptor (HIR) (Homo sapiens, UniProt P06213) (assay: Insulin receptor binding, competition with 125I-labeled insulin (radio-receptor assay)). Conditions: HIR binding affinity of synthetic peptides.
T1 construct: made in house
T1 sequence (P06213 28-758 limits assumed): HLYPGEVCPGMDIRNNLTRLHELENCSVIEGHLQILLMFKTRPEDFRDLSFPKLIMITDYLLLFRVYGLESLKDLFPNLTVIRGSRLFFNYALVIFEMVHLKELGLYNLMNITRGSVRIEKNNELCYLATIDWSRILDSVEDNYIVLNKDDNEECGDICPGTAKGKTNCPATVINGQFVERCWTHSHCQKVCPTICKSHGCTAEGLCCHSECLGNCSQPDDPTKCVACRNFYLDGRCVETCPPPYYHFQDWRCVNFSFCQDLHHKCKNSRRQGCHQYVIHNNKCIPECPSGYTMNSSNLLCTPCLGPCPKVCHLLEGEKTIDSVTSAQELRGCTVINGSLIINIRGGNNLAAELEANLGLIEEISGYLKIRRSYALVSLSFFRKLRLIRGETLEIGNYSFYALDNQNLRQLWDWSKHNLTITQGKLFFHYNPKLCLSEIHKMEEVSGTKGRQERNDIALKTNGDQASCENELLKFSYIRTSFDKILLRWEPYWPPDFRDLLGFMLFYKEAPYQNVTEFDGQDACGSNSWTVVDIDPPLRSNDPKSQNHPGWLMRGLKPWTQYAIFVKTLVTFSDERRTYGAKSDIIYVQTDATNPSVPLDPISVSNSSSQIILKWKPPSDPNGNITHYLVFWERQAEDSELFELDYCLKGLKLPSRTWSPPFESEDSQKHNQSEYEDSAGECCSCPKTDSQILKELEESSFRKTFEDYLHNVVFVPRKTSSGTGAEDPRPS
T1 sequence (P06213 763-1382 limits assumed): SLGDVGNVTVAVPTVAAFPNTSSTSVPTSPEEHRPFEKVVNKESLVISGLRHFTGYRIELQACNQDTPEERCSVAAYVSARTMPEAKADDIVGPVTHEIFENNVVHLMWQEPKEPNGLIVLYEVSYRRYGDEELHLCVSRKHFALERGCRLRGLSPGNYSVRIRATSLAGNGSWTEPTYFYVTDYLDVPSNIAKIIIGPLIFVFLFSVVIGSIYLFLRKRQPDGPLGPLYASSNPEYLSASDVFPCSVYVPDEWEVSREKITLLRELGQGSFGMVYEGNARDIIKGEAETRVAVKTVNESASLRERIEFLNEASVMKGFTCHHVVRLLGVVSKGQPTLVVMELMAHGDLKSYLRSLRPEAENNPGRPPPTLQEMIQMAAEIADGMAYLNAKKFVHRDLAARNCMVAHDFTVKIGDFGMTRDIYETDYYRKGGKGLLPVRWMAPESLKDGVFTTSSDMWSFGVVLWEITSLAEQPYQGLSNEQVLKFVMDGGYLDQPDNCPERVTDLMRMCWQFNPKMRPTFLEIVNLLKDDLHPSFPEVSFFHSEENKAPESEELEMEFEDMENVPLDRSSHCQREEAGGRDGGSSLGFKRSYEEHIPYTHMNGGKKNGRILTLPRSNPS
CC(C)C[C@H](NC(=O)[C@@H](N)CCC(N)=O)C(=O)N[C@@H](CCC(=O)O)C(=O)N[C@@H](CCC(=O)O)C(=O)N[C@@H](CCC(=O)O)C(=O)N[C@@H](Cc1c[nH]c2ccccc12)C(=O)N[C@@H](C)C(=O)NCC(=O)N[C@H](C(=O)N[C@@H](CCC(N)=O)C(=O)N[C@H]1CSSC[C@@H](C(=O)N2CCC[C@H]2C(=O)N[C@@H](CO)C(=O)O)NC(=O)[C@H](CCC(=O)O)NC(=O)[C@H](CCCNC(=N)N)NC(=O)CNC(=O)[C@H](Cc2ccc(O)cc2)NC(=O)[C@H](C(C)C)NC(=O)[C@H](CCC(=O)O)NC1=O)C(C)C [Peptide S226] (HELM PEPTIDE1{Q.L.E.E.E.W.A.G.V.Q.C.E.V.Y.G.R.E.C.P.S}$PEPTIDE1,PEPTIDE1,11:R3-18:R3$$$V2.0; N-terminus and C-terminus assumed; bridges inferred) showed a pKd of 5.80.

Each compound was assayed on free fat cells (assay: Adipocyte / free fat cell (FFC) assay, 3H glucose incorporation into lipid). Conditions: not given.
(ESFYDWFERQLGK)2-23 [Peptide S415] was tested, and the “activity in the FFC assay / at IR” value was “highly potent”.
“S453: Site 1-Site 2 heterodimer, C-N linkage (GSLDESFYDWFERQLGKKK[Glyoxylyl][Glyoxylyl]KEWLDQEWAWVQCEVYGRGCPSEE; disulfide 34-41 (inferred); not fully specified (residue 20, bridges); printed as GSLDESFYDWFERQLGKKK-Ald-17-Ald-KEWLDQ EWAWVQCEVYGRGCPSEE; also: Site 1-Site 2 heterodimer, C-N linkage via linker 17) [Peptide S453]” was tested, and the “activity in the FFC assay / at IR” value was “antagonist activity; also recorded: antagonist properties”.

Same assay, conditions: FFC assay potency; number of + grades agonist activity
In the case of CC(C)C[C@H](NC(=O)[C@H](CCC(N)=O)NC(=O)[C@H](CCCNC(=N)N)NC(=O)[C@H](CCC(=O)O)NC(=O)[C@H](Cc1ccccc1)NC(=O)[C@H](Cc1c[nH]c2ccccc12)NC(=O)[C@H](CC(=O)O)NC(=O)[C@H](Cc1ccc(O)cc1)NC(=O)[C@H](Cc1ccccc1)NC(=O)[C@H](CO)NC(=O)[C@H](CCC(=O)O)NC(=O)[C@H](CC(=O)O)NC(=O)[C@H](CC(C)C)NC(=O)[C@H](CO)NC(=O)CNC(=O)CNC(=O)[C@H](CO)NC(=O)[C@@H]1CSSC[C@H](NC(=O)[C@H](CC(C)C)NC(=O)[C@@H](N)Cc2c[nH]cn2)C(=O)N[C@@H](C(C)C)C(=O)N[C@@H](CC(C)C)C(=O)N[C@@H](CCC(=O)O)C(=O)N[C@@H](CCC(=O)O)C(=O)N[C@@H](CC(C)C)C(=O)N[C@@H](Cc2ccccc2)C(=O)N[C@@H](Cc2c[nH]c3ccccc23)C(=O)NCC(=O)N[C@@H](C)C(=O)N[C@@H](CO)C(=O)N[C@@H](CC(C)C)C(=O)N[C@@H](Cc2ccccc2)C(=O)NCC(=O)N[C@@H](Cc2ccc(O)cc2)C(=O)N1)C(=O)O [Peptide S521] (HELM PEPTIDE1{H.L.C.V.L.E.E.L.F.W.G.A.S.L.F.G.Y.C.S.G.G.S.L.D.E.S.F.Y.D.W.F.E.R.Q.L}$PEPTIDE1,PEPTIDE1,3:R3-18:R3$$$V2.0; N-terminus and C-terminus assumed; bridges inferred), the FEC was “+”.

Same assay, conditions: FFC assay potency; number of + grades agonist potency
With CC(C)[C@H](NC(=O)[C@H](Cc1ccccc1)NC(=O)[C@H](Cc1c[nH]c2ccccc12)NC(=O)[C@H](CC(=O)O)NC(=O)[C@H](Cc1ccc(O)cc1)NC(=O)[C@H](Cc1ccccc1)NC(=O)[C@H](CC(N)=O)NC(=O)[C@H](CCC(=O)O)NC(=O)[C@H](Cc1c[nH]cn1)NC(=O)[C@@H](N)Cc1ccccc1)C(=O)N[C@@H](CCCNC(=N)N)C(=O)N[C@@H](CCC(N)=O)C(=O)N[C@H](C(=O)N[C@@H](CO)C(=O)N[C@@H](CCCCN)C(=O)N[C@@H](CCCCN)C(=O)N[C@@H](CNC(=O)CON)C(N)=O)C(C)C [Peptide S131] the FEC was “+”.
For CC(C)C[C@H](NC(=O)[C@H](CCC(=O)O)NC(=O)[C@H](C)NC(=O)[C@@H](NC(=O)[C@H](Cc1ccccc1)NC(=O)[C@H](Cc1c[nH]c2ccccc12)NC(=O)[C@H](CC(=O)O)NC(=O)[C@H](Cc1ccc(O)cc1)NC(=O)[C@H](Cc1ccccc1)NC(=O)[C@H](CC(N)=O)NC(=O)[C@H](C)NC(=O)[C@H](CC(N)=O)NC(=O)[C@H](CCCNC(=N)N)NC(=O)[C@H](CCC(N)=O)NC(=O)[C@H](CC(C)C)NC(=O)[C@H](Cc1c[nH]c2ccccc12)NC(=O)[C@H](CC(=O)O)NC(=O)[C@@H](NC(=O)[C@H](CCCNC(=N)N)NC(=O)CNC(=O)[C@@H](N)CNC(=O)CON)C(C)C)C(C)C)C(=O)NCC(N)=O [Peptide S245], the FEC was “+”.
Compound CC(C)C[C@@H]1NC(=O)[C@H](CO)NC(=O)[C@H](C)NC(=O)CNC(=O)CNC(=O)[C@H](Cc2ccccc2)NC(=O)[C@H](CC(C)C)NC(=O)[C@H](CCC(=O)O)NC(=O)[C@H](CCC(N)=O)NC(=O)[C@H](CC(C)C)NC(=O)[C@H](Cc2ccccc2)NC(=O)[C@@H](NC(=O)[C@H](CC(C)C)NC(=O)[C@@H]2CCCN2)CSSC[C@@H](C(=O)N[C@@H](CO)C(=O)NCC(=O)O)NC(=O)[C@H](Cc2ccc(O)cc2)NC(=O)CNC(=O)CNC1=O [Peptide S262] (HELM PEPTIDE1{P.L.C.F.L.Q.E.L.F.G.G.A.S.L.G.G.Y.C.S.G}$PEPTIDE1,PEPTIDE1,3:R3-18:R3$$$V2.0; N-terminus and C-terminus assumed; bridges inferred) has an FEC of 0.
With CC[C@H](C)[C@@H]1NC(=O)[C@H](CCC(=O)O)NC(=O)[C@@H](NC(=O)[C@H](Cc2c[nH]c3ccccc23)NC(=O)[C@@H](NC(=O)[C@H](Cc2c[nH]c3ccccc23)NC(=O)[C@H](C)NC(=O)[C@H](CCCNC(=N)N)NC(=O)[C@H](CCC(=O)O)NC(=O)[C@H](CCC(N)=O)NC(=O)[C@H](CCC(=O)O)NC(=O)[C@H](CC(C)C)NC(=O)[C@@H](N)Cc2c[nH]c3ccccc23)[C@@H](C)CC)CSSC[C@@H](C(=O)N[C@@H](CCCNC(=N)N)C(=O)N[C@@H](C)C(=O)O)NC(=O)CNC(=O)[C@H](CO)NC(=O)CNC(=O)[C@H](CCC(N)=O)NC1=O [Peptide S263] (HELM PEPTIDE1{W.L.E.Q.E.R.A.W.I.W.C.E.I.Q.G.S.G.C.R.A}$PEPTIDE1,PEPTIDE1,11:R3-18:R3$$$V2.0; N-terminus and C-terminus assumed; bridges inferred) the FEC was 0.
With CC[C@@H](C)[C@@H](NC(=O)[C@H](CCC(=O)O)NC(=O)[C@H](CC(=O)O)NC(=O)[C@H](Cc1ccccc1)NC(=O)[C@H](Cc1c[nH]c2ccccc12)NC(=O)[C@H](CC(=O)O)NC(=O)[C@H](Cc1ccc(O)cc1)NC(=O)[C@H](Cc1ccccc1)NC(=O)[C@H](CCC(=O)O)NC(=O)C(C)(C)NC(=O)[C@H](CC(=O)O)NC(=O)C1(NC(=O)[C@@H](N)CC(=O)O)Cc2ccccc2C1)C(=O)N1CCC[C@H]1C(=O)N[C@H](CCC(N)=O)C(N)=O [Peptide S319] (HELM PEPTIDE1{D.[O=C(C1(N[*:1])Cc2ccccc2C1)[*:2]].D.[Aib].E.F.Y.D.W.F.D.E.[dI].P.[dQ].[am]}$$$$V2.0) the FEC was 0.
CC[C@@H](C)[C@@H](NC(=O)[C@H](CCC(=O)O)NC(=O)[C@H](CC(=O)O)NC(=O)[C@H](Cc1ccccc1)NC(=O)[C@H](Cc1c[nH]c2ccccc12)NC(=O)[C@H](CC(=O)O)NC(=O)[C@H](Cc1ccc(O)cc1)NC(=O)[C@H](Cc1ccccc1)NC(=O)[C@@H]1C[C@@H](O)CN1C(=O)[C@H](CC(=O)O)NC(=O)[C@H](CCCNC(=N)N)NC(=O)[C@@H](CCC(=O)O)NC(=O)[C@@H](N)Cc1ccc(O)cc1)C(=O)NCC(=O)NCC(N)=O [Peptide S321] was tested, and the FEC was 0.
In the case of CC[C@@H](C)[C@@H](NC(=O)[C@H](CCC(=O)O)NC(=O)[C@H](CC(=O)O)NC(=O)[C@H](Cc1ccccc1)NC(=O)[C@H](Cc1c[nH]c2ccccc12)NC(=O)[C@H](CC(=O)O)NC(=O)[C@H](Cc1ccc(O)cc1)NC(=O)[C@H](Cc1ccccc1)NC(=O)[C@@H]1C[C@@H](O)CN1C(=O)[C@H](CC(=O)O)NC(=O)[C@H](CCCNC(=N)N)NC(=O)[C@H](Cc1c[nH]c2ccccc12)NC(=O)[C@@H](N)CCC(=O)O)C(=O)N1C[C@H](O)C[C@H]1C(=O)N[C@H](CCC(=O)O)C(N)=O [Peptide S322] (HELM PEPTIDE1{E.W.R.D.[Hyp].F.Y.D.W.F.D.E.[dI].[Hyp].[dE].[am]}$$$$V2.0), the FEC was 0.
CC(C)C[C@@H]1NC(=O)[C@H](CO)NC(=O)[C@H](C)NC(=O)CNC(=O)[C@H](Cc2c[nH]c3ccccc23)NC(=O)[C@H](Cc2ccccc2)NC(=O)[C@H](CC(C)C)NC(=O)[C@H](CCC(=O)O)NC(=O)[C@H](CCC(=O)O)NC(=O)[C@H](CC(C)C)NC(=O)[C@H](C(C)C)NC(=O)[C@@H](NC(=O)[C@H](CC(C)C)NC(=O)[C@H](Cc2c[nH]cn2)NC(=O)[C@@H](N)CCCCN)CSSC[C@@H](C(=O)N[C@@H](CO)C(=O)NCC(=O)N[C@@H](CCCCN)C(=O)N[C@@H](CCCCN)C(N)=O)NC(=O)[C@H](Cc2ccc(O)cc2)NC(=O)CNC(=O)[C@H](Cc2ccccc2)NC1=O [Peptide S331] (HELM PEPTIDE1{K.H.L.C.V.L.E.E.L.F.W.G.A.S.L.F.G.Y.C.S.G.K.K.[am]}$PEPTIDE1,PEPTIDE1,4:R3-19:R3$$$V2.0) gave an FEC of 0.
For “S326 (GIISQSCPESFYDWFAGQVSDPWWCW) [Peptide S326]”, the FEC was “−”.
“S419 (chain 1 K(aminooxyacetyl)EWLDQEWAWVQCEVYGRGCPSEE; chain 2 K(aminooxyacetyl)EWLDQEWAWVQCEVYGRGCPSEE; disulfide I:13-I:20, II:13-II:20 (inferred); not fully specified (bridges); also: dimer, the two chains joined N-terminus to N-terminus through linker 14 at the side chain of residue 1) [Peptide S419]” gave an FEC of 0.
